This is an account of results in US8815875B2 (Merck Sharp & Dohme Corp., priority 2008, dated 2014).

The target of this test is FABP4 (Homo sapiens, UniProt P15090). Nature of the test: TdF (Temperature Dependence Fluorescence) assay, thermal shift, FABP4. It is filed as binding. The method, boiled down:
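Binding measured as ΔTm versus protein alone; binding constants derived by nonlinear fitting with ΔHL set to −7 kcal/mol and ΔCpL to zero.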

Bounds are passed on as bounds.

Chain of FABP4 (P15090 whole entry, species assumed): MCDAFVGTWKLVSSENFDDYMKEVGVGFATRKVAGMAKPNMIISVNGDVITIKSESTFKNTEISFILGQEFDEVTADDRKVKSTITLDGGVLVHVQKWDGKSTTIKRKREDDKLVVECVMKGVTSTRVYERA

With `O=C(NCC1(CO)CCC1)C1(OCc2cc(=O)n3nc(-c4ccccc4)nc3[nH]2)CCCCC1` [48-11], the Kd was at most 1 nM.
On to `O=C(NCC1(c2cccc(Cl)c2)CCC1)c1c(Cl)cccc1OCc1cc(=O)n2nc(-c3ccccc3)nc2[nH]1` [47-37, 2-chloro-N-((1-(3-chlorophenyl)cyclobutyl)methyl)-6-((7-oxo-2-phenyl-4,7-dihydro-[1,2,4]triazolo[1,5-a]pyrimidin-5-yl)methoxy)benzamide], for which the Kd is at most 1 nM.
For the molecule `Cc1cc(NC(=O)C2(OCc3cc(=O)n4nc(-c5ccccc5)nc4[nH]3)CCCCC2)n(C)n1` [48-35], the Kd was over 500 nM.
Same read-out and setting: the result for `CNCC1(COC(=O)C2(OCc3cc(=O)n4nc(-c5ccccc5)nc4[nH]3)CCCCC2)CCC1` [48-47] reads over 500 nM; that for `O=c1cc(CN2CCC(Cc3ccccc3F)C2)[nH]c2nc(-c3ccccc3)nn12` (stereo not shown) [1-92], over 500 nM; that for `O=c1ccccn1Cc1cc(=O)n2nc(-c3ccccc3)nc2[nH]1` [1-48], over 500 nM.
For `CCc1ccc(OCc2cc(=O)n3nc(-c4ccccc4)nc3[nH]2)cc1` [1-3], the “FABP4 TdF Kd” value is “B (0.5 ≦ B < 0.001 μM)”.
As for `O=C(NCC1(c2ccc(Cl)cc2)CCC1)C1(OCc2cc(=O)n3nc(-c4ccccc4)nc3[nH]2)CCCCC1` [48-65], the equilibrium dissociation constant (Kd) is at most 1 nM.
Turning to `O=C(NC1CCCCC1)C1(OCc2cc(=O)n3nc(-c4ccccc4)nc3[nH]2)CCCCC1` [48-40], the “FABP4 TdF Kd” value is “B (0.5 ≦ B < 0.001 μM)”.
Consider `O=c1cc(COc2cccc(C(F)(F)F)c2)[nH]c2nc(C(F)(F)F)nn12` [5-3], for which the Kd is over 500 nM.
With `COc1ccc(OCc2cc(=O)n3nc(-c4ccccc4)nc3[nH]2)cc1OC` [1-41], the dissociation constant Kd is over 500 nM.
Still for that read-out and setting: the result for `CC(=O)N1CCC(OCc2cc(=O)n3nc(-c4ccccc4)nc3[nH]2)CC1` [1-49] reads over 500 nM.
Regarding `Cn1ccc(NC(=O)c2c(Cl)cccc2OCc2cc(=O)n3nc(-c4ccccc4)nc3[nH]2)n1` [47-40], the “FABP4 TdF Kd” value is “B (0.5 ≦ B < 0.001 μM)”.
Turning to `CCc1ccc(OCc2[nH]c3nc(-c4ccccc4)nn3c(=O)c2Br)cc1` [2-2], the Kd was over 500 nM.
With `Cc1cc(N)n(C(=O)c2c(Cl)cccc2OCc2cc(=O)n3nc(-c4ccccc4)nc3[nH]2)n1` [47-51], the Kd was at most 1 nM.
As to `CNC(=O)C1(OCc2cc(=O)n3nc(-c4ccccc4)nc3[nH]2)CCCCC1` [48-23], the dissociation constant Kd is over 500 nM.
As for `CC(C)(CNC(=O)C1(OCc2cc(=O)n3nc(-c4ccccc4)nc3[nH]2)CCCCC1)N1CCOCC1` [48-58], the “FABP4 TdF Kd” value is recorded as “B (0.5 ≦ B < 0.001 μM)”.
For the molecule `CCc1ccc(NCc2cc(=O)n3nc(-c4ccccc4)cc3[nH]2)cc1` [10-1], the dissociation constant Kd is over 500 nM.
In the case of `CCc1ccc(OCc2cc(=O)n3ncnc3[nH]2)cc1` [7-1], the dissociation constant Kd was over 500 nM.
For the molecule `O=c1cc(CN2CCOc3c(Br)cccc32)[nH]c2nc(-c3ccccc3)nn12` [1-81], the “FABP4 TdF Kd” value is given as “B (0.5 ≦ B < 0.001 μM)”.
For the molecule `CCc1ccc(OCc2cc(=O)n3nc(Cc4ccccc4)nc3[nH]2)cc1` [8-11], the Kd is over 500 nM.
The same measure, in the same setting: next, `O=c1c(Cl)c(CN2CCCC2Cc2cccc(Cl)c2)[nH]c2nc(-c3ccccc3)nn12` (stereo not shown) [24-5]: over 500 nM.
With `O=C(NCC1CC1)C1(OCc2cc(=O)n3nc(-c4ccccc4)nc3[nH]2)CCCCC1` [48-16], the “FABP4 TdF Kd” value is “B (0.5 ≦ B < 0.001 μM)”.
Regarding `O=C(NCC1(c2ccccc2Cl)CC1)c1ccccc1OCc1cc(=O)n2nc(-c3ccccc3)nc2[nH]1` [47-60], the “FABP4 TdF Kd” value is on record as “B (0.5 ≦ B < 0.001 μM)”.
Consider `NC1(COC(=O)C2(OCc3cc(=O)n4nc(-c5ccccc5)nc4[nH]3)CCCCC2)CCOCC1` [48-68], for which the Kd was over 500 nM.
As for `CN(CCc1cccc(Cl)c1)C(=O)C1(OCc2cc(=O)n3nc(-c4ccccc4)nc3[nH]2)CCCCC1` [48-29], the “FABP4 TdF Kd” value is reported as “B (0.5 ≦ B < 0.001 μM)”.
In the case of `COc1cccc(C2(CNC(=O)C3(OCc4cc(=O)n5nc(-c6ccccc6)nc5[nH]4)CCCCC3)CC2)c1` [48-70], the “FABP4 TdF Kd” value is on record as “B (0.5 ≦ B < 0.001 μM)”.
Turning to `Cc1cn(Cc2cc(=O)n3nc(-c4ccccc4)nc3[nH]2)c2cccc(Cl)c12` [1-142], the “FABP4 TdF Kd” value is reported as “B (0.5 ≦ B < 0.001 μM)”.
Turning to `Nc1cc(C2CC2)nn1C(=O)c1c(Cl)cccc1OCc1cc(=O)n2nc(-c3ccccc3)nc2[nH]1` [47-50], the dissociation constant Kd is at most 1 nM.
On the same count and under the same terms, the result for `Cc1c(Cl)cccc1OCc1cc(=O)n2nc(-c3ccccc3F)nc2[nH]1` [25-8] reads over 500 nM.
`COc1cccc(C)c1OCc1cc(=O)n2nc(-c3ccccc3)nc2[nH]1` [1-58]: the “FABP4 TdF Kd” value is “B (0.5 ≦ B < 0.001 μM)”.
`O=C(NCCC1CC1)c1ccccc1OCc1[nH]c2nc(-c3ccccc3)nn2c(=O)c1Cl` [24-14]: the “FABP4 TdF Kd” value was “B (0.5 ≦ B < 0.001 μM)”.
Same read-out and setting: next, `O=C(NCC1(CO)CCCC1)c1ccccc1OCc1[nH]c2nc(-c3ccccc3)nn2c(=O)c1Cl` [24-9]: “B (0.5 ≦ B < 0.001 μM)”; `Cn1nccc1NC(=O)c1c(Cl)cccc1OCc1cc(=O)n2nc(-c3ccccc3)nc2[nH]1` [47-2, 2-chloro-N-(1-methyl-1H-pyrazol-5-yl)-6-((7-oxo-2-phenyl-4,7-dihydro-[1,2,4]triazolo[1,5-a]pyrimidin-5-yl)methoxy)benzamide]: “B (0.5 ≦ B < 0.001 μM)”.
Consider `COCC1(CNC(=O)c2ccccc2OCc2[nH]c3nc(-c4ccccc4)nn3c(=O)c2Cl)CC1` [24-17], for which the “FABP4 TdF Kd” value is reported as “B (0.5 ≦ B < 0.001 μM)”.
On to `CCc1ccc(S(=O)(=O)Cc2cc(=O)n3nc(-c4ccccc4)nc3[nH]2)cc1` [12-2], for which the equilibrium dissociation constant (Kd) is over 500 nM.
As to `O=C(NC1(CO)CC1)c1c(Cl)cccc1OCc1cc(=O)n2nc(-c3ccccc3)nc2[nH]1` [47-12, 2-chloro-N-(1-(hydroxymethyl)cyclopropyl)-6-((7-oxo-2-phenyl-4,7-dihydro-[1,2,4]triazolo[1,5-a]pyrimidin-5-yl)methoxy)benzamide], the “FABP4 TdF Kd” value was “B (0.5 ≦ B < 0.001 μM)”.
As for `COc1cc2c(cc1OC)CN(Cc1cc(=O)n3nc(-c4ccccc4)nc3[nH]1)C2` [6-5], the Kd is over 500 nM.
As for `O=C(Nc1cc(C2CC2)n[nH]1)c1c(Cl)cccc1OCc1cc(=O)n2nc(-c3ccccc3)nc2[nH]1` [47-32, 2-chloro-N-(3-cyclopropyl-1H-pyrazol-5-yl)-6-((7-oxo-2-phenyl-4,7-dihydro-[1,2,4]triazolo[1,5-a]pyrimidin-5-yl)methoxy)benzamide], the “FABP4 TdF Kd” value is “B (0.5 ≦ B < 0.001 μM)”.
Same read-out and setting: the result for `O=C(N1CCc2ccc(Cl)cc21)C1(OCc2cc(=O)n3nc(-c4ccccc4)nc3[nH]2)CCCCC1` [48-64] reads “B (0.5 ≦ B < 0.001 μM)”.
On to `COC(=O)C1(NCc2cc(=O)n3nc(-c4ccccc4)nc3[nH]2)CCc2ccc(Br)cc2C1` (stereo not shown) [1-155], for which the dissociation constant Kd was over 500 nM.
For `O=C(NC1CCCCC1)c1ccccc1OCc1cc(=O)n2nc(-c3ccccc3)nc2[nH]1` [47-63], the “FABP4 TdF Kd” value is listed as “B (0.5 ≦ B < 0.001 μM)”.
For `O=C(NCc1ccccc1C(F)(F)F)C1(OCc2cc(=O)n3nc(-c4ccccc4)nc3[nH]2)CCCCC1` [48-49], the “FABP4 TdF Kd” value was “B (0.5 ≦ B < 0.001 μM)”.
With `CCc1ccc(NCc2cc(=O)n3ncnc3[nH]2)cc1` [4-3], the Kd was over 500 nM.
In the case of `CN(CCC1CC1)C(=O)C1(OCc2cc(=O)n3nc(-c4ccccc4)nc3[nH]2)CCCCC1` [48-77], the “FABP4 TdF Kd” value is recorded as “B (0.5 ≦ B < 0.001 μM)”.
`CC1(C)CCCC(C)(C)C1OCc1cc(=O)n2nc(-c3ccccc3)nc2[nH]1` [1-102]: the Kd was over 500 nM.

For orientation: Kd means the constant that tells how readily two partners part at equilibrium.
